# Test results as given in PMC8199124, “Design, Synthesis and In-Vitro Biological Evaluation of Antofine and Tylophorine Prodrugs as Hypoxia-Targeted Anticancer Agents” (Molecules, 2021).
# Read-outs that look alike come from different tables or passages of the source.
# What was measured:
# HCT116 [1] = experiment: Cytotoxicity (MTT) under normoxia, HCT116; assay type: cell-based; settings: Homo sapiens
# Procedure: (§1) The cytotoxicity of the compounds 5a–c and their parent alkaloids was evaluated by the 3-[4,5-dimethylthiazole-2-yl]-2,5-diphenyltetrazolium bromide (MTT) assay against 5 cancerous and 2 non-cancerous cell lines (Table 4).
# (§2) The eight cell lines HEK293 (Human embryonic kidney 293), CHO-K1 (Chinese hamster ovary K1), MCF-7 cells (Human breast adenocarcinoma), HCT116 (human colorectal carcinoma), RKO (Human rectal carcinoma), SW480 (human colorectal carcinoma), H460 (Human lung cancer), and MRC5 (Normal human foetal lung fibroblast), were obtained from the ATCC. The cell lines were routinely grown in alpha minimum essential medium (α-MEM) containing 5% foetal calf serum (FCS). The appropriate number of cells (HCT116 = 400 cells/well, H460 cells = 600 cells/well) were seeded into 96-well plates under normoxic or hypoxic conditions. Cells were plated in 100 µL α-MEM containing 10% FCS, 10mM D-Glucose and 0.2mM 2′-deoxycytidine. After incubation for 2 h, the compounds were added at the appropriate concentration and incubated for further 4 h. The cells were then washed three times with drug-free α-MEM (containing 5% FCS and pen/strep). The plates were then incubated for 5 days under normoxic conditions. The cells were stained with sulphorhodamine B to measure total cells. The IC50 was determined by interpolation as the compound concentration reducing staining to 50% of controls on the same plate.
# [2] = Plasma protein binding (PPB); assay type: in vitro ADME; settings: mean ± SE, read-out: PPB (% of Bound Compound) (converted)
# Procedure: The physicochemical properties of the new compounds were evaluated (Table 1).
# MRC5 = experiment: Cytotoxicity (MTT) under normoxia, MRC5; assay type: cell-based; settings: Homo sapiens
# Procedure: as §1, §2
# SW480 = experiment: Cytotoxicity (MTT) under normoxia, SW480; assay type: cell-based; settings: Homo sapiens
# Procedure: as §1, §2
# LogD determination = assay type: physicochemical; settings: mean ± SE
# Procedure: (§3) Water solubility, logD, and PAMPA-BBB were evaluated using the protocols we previously described.
# MCF7 = experiment: Cytotoxicity (MTT) under normoxia, MCF7; assay type: cell-based; settings: Homo sapiens
# Procedure: as §1, §2
# H460 = experiment: Cytotoxicity under normoxia and hypoxia (anaerobic chamber, sulphorhodamine B), H460; assay type: cell-based, human; settings: for IC50: 4 h exposure, 5 days growth
# Procedure: (§4) We also checked if the designed prodrugs were able to liberate the active alkaloids in hypoxic tumors by testing them under hypoxic conditions using an anaerobic chamber. The three prodrugs 5a–c and their parent alkaloids as well as the reference compounds PR-104A, the parent alcohol form of the phosphate pre-prodrug PR-104, and evofosfamide were tested using the HCT116 and H460 cell lines under both normoxic and hypoxic conditions (Table 5). The prodrugs were much less cytotoxic than the parent drugs, in agreement with our observations using the other cell lines described above (Figure 6).
# (§5) The extent to which a prodrug is deactivated relative to its parent drug under normoxic conditions is defined as the Deactivation Ratio (DR). The DR can be simply calculated as DR = IC50 (prodrug)/IC50 (parent drug).
# (§6) The efficacy of prodrug activation under hypoxic conditions can be expressed by the Hypoxia Cytotoxicity Ratio (HCR), which can be calculated for a given prodrug as: HCR = normoxic IC50/hypoxic IC50.
# as §2
# HCT116 [3] = experiment: Cytotoxicity under normoxia and hypoxia (anaerobic chamber, sulphorhodamine B), HCT116; assay type: cell-based, human; settings: for IC50: 4 h exposure, 5 days growth
# Procedure: as §4, §5, §6, §2
# HEK293 = experiment: Cytotoxicity (MTT) under normoxia, HEK293; assay type: cell-based; settings: Homo sapiens
# Procedure: as §1, §2
# [4] = BBB-Parallel Artificial Membrane Permeability Assay (BBB-PAMPA); assay type: in vitro ADME; settings: mean ± SE
# Procedure: The physicochemical properties of the new compounds were evaluated (Table 1). […] Consequently, these derivatives lost their BBB penetrability, as predicted by the BBB-Parallel Artificial Membrane Permeability Assay (BBB-PAMPA), whereas their parent alkaloids had free passage through the BBB.
# as §3
# in vitro = settings: male, Balb/c, pH 7.4; for half-life at 2 μM: microsomes
# Procedure: Mouse hepatic microsomes were isolated from pooled, perfused livers of Balb/c male mice according to the standard protocol. […] Microsomal incubations were carried out in 96-well plates in 5 aliquots of 40 μL each. […] Control incubations were performed by replacing the NADPH-cofactor system with PBS. The additional control incubations in PBS (with 3.3 mM MgCl2) without added microsomes were carried out in this study. […] The incubations were performed in duplicates. Five time points over 40 min had been analyzed. The reactions were stopped by adding 12 volumes of 90% acetonitrile-water to incubation aliquots, followed by protein sedimentation by centrifuging at 5500 rpm for 3 min. The supernatants were analyzed using LC-MS as mentioned above.
# RKO = experiment: Cytotoxicity (MTT) under normoxia, RKO; assay type: cell-based; settings: Homo sapiens, read-out: IC50 RKO
# Procedure: as §1, §2
# [5] = Solubility in PBS (pH 7.4); assay type: physicochemical; settings: aqueous buffer, mean ± SE
# Procedure: as §3
# CHO-K1 = experiment: Cytotoxicity (MTT) under normoxia, CHO-K1; assay type: cell-based, Chinese hamster; settings: Cricetulus griseus
# Procedure: as §1, §2
# [6] = Mouse plasma stability test; assay type: in vitro ADME; settings: 37 °C, up to 24 h, read-out: t1/2 (Mouse Plasma) (converted)
# Procedure: (§7) Incubations were carried out in 6 aliquots of 70 μL each in duplicates. […] The reactions were stopped by adding 350 μL of acetonitrile with subsequent plasma proteins sedimentation by centrifuging at 5500 rpm for 5 min. Supernatants were analyzed by LC-MS using Shimadzu VP HPLC system including vacuum degasser, gradient pumps, reverse phase column, column oven and autosampler. The HPLC system was coupled with tandem mass spectrometer API 3000 (PE Sciex, Foster City, CA, USA). Both the positive and negative ion modes of the TurboIonSpray ion source were used. The acquisition and analysis of the data were performed using Analyst 1.5.2 software (PE Sciex, API 3000 mass spectrometer, Foster City, CA, USA). The percentage of the test compounds remaining after incubation in plasma and their half-lives (T1/2) were calculated.
# [7] = Human plasma stability test; assay type: in vitro ADME; settings: 37 °C, up to 24 h, read-out: t1/2 (Human Plasma) (converted)
# Procedure: as §7
# [8] = Homo sapiens, NCI-H460, H460, hypoxia, read-out: IC50 (Hypoxia)
# [9] = Homo sapiens, NCI-H460, H460, normoxia, read-out: IC50 (Normoxia)
# [10] = Homo sapiens, HCT-116, HCT116, hypoxia, read-out: IC50 (Hypoxia)
# [11] = Homo sapiens, HCT-116, HCT116, normoxia, read-out: IC50 (Normoxia)
# [12] = H460, HCR = normoxic IC50/hypoxic IC50
# [13] = HCT116, HCR = normoxic IC50/hypoxic IC50
structure (smiles),measurement,setting,value
"COc1ccc2c3c(c4cc(OC)c(OC)cc4c2c1)C[C@H]1CCCN1C3 [(R)-Antofine, (R)-antofine]",IC50,"HCT116 [1]; HCT-116, normoxia, read-out: IC50 HCT116",2 nM
same,fraction unbound,[2],0.019
same,IC50,"MRC5; MRC5, normoxia, read-out: IC50 MRC5",6 ± 2 nM
same,IC50,"SW480; SW480, normoxia, read-out: IC50 SW480",9 ± 2 nM
same,logD,LogD determination,3.68 ± 0.03
same,IC50,"MCF7; MCF7, normoxia, read-out: IC50 MCF7",2 nM
same,HCR (Hypoxia Cytotoxicity Ratio),H460,0.6
same,IC50,H460; [8],25.4 ± 9 nM
same,IC50,H460; [9],29.2 ± 12 nM
same,HCR (Hypoxia Cytotoxicity Ratio),HCT116 [3],0.4
same,IC50,HCT116 [3]; [10],16.7 ± 9 nM
same,IC50,HCT116 [3]; [11],23.9 ± 7 nM
same,IC50,"HEK293; HEK293, normoxia, read-out: IC50 HEK293",30 ± 43 nM
same,Permeability (Papp),[4],−5.6 ± 0.58 Log [10^−6 cm/s]
same,Kel (elimination rate constant),"in vitro; mouse, 2 μM",0.002 ± 0 min⁻¹
same,half-life at 2 μM,in vitro; mouse,1.12 ± 0.035 h
same,IC50,RKO; normoxia,6 ± 1 nM
same,solubility,[5],27 ± 2 µM
same,IC50,"CHO-K1; CHO-K1, normoxia, read-out: IC50 CHO-K1",33 ± 50 nM
COc1cc2c3c(c4cc(OC)c(OC)cc4c2cc1OC)CN1CCC[C@@H]1C3 [(R)-Tylophorine],IC50,"HCT116 [1]; HCT-116, read-out: IC50 HCT116",440 ± 36 nM
same,IC50,"MRC5; MRC5, read-out: IC50 MRC5",95 ± 6 nM
same,IC50,"SW480; SW480, read-out: IC50 SW480",1150 ± 244 nM
same,IC50,"MCF7; MCF7, read-out: IC50 MCF7",101 ± 88 nM
same,HCR (Hypoxia Cytotoxicity Ratio),H460; [12],1.1
same,IC50,H460; [8],161 ± 77 nM
same,IC50,H460; [9],175 ± 78 nM
same,HCR (Hypoxia Cytotoxicity Ratio),HCT116 [3]; [13],0.6
same,IC50,HCT116 [3]; [10],56.4 ± 35 nM
same,IC50,HCT116 [3]; [11],1710 ± 965 nM
same,IC50,RKO,338 ± 61 nM
COc1cc2c3c(c4cc(OC)c(OC)cc4c2cc1OC)CN1CCC[C@H]1C3 [(S)-Tylophorine],IC50,"HCT116 [1]; HCT-116, read-out: IC50 HCT116",85 ± 6 nM
same,fraction unbound,[2],0.061
same,IC50,"MRC5; MRC5, read-out: IC50 MRC5",27 ± 2 nM
same,IC50,"SW480; SW480, read-out: IC50 SW480",69 ± 20 nM
same,logD,LogD determination,3.14 ± 0.02
same,IC50,"MCF7; MCF7, read-out: IC50 MCF7",62 ± 13 nM
same,HCR (Hypoxia Cytotoxicity Ratio),H460; [12],1.1
same,IC50,H460; [8],102 ± 32 nM
same,IC50,H460; [9],108 ± 28 nM
same,HCR (Hypoxia Cytotoxicity Ratio),HCT116 [3]; [13],0.5
same,IC50,HCT116 [3]; [10],50.1 ± 18 nM
same,IC50,HCT116 [3]; [11],35.1 ± 15 nM
same,IC50,"HEK293; HEK293, read-out: IC50 HEK293",16 ± 26 nM
same,Permeability (Papp),[4],−5.4 ± 0.17 Log [10^−6 cm/s]
same,half-life at 2 μM,in vitro,2.12 ± 0.05 h
same,IC50,RKO,202 ± 3 nM
same,solubility,[5],2 µM
same,IC50,"CHO-K1; CHO-K1, read-out: IC50 CHO-K1",35 ± 42 nM
CN(C)CCCN1c2ccccc2Sc2ccc(Cl)cc21 [Chlorpromazine],Permeability (Papp),[4],−5.4 ± 0.13 Log [10^−6 cm/s]
CN1CCN(C2=Nc3cc(Cl)ccc3Nc3ccccc32)CC1 [Clozapine],Permeability (Papp),[4],−5.1 ± 0.12 Log [10^−6 cm/s]
Cn1c(COP(=O)(NCCBr)NCCBr)cnc1[N+](=O)[O-] [Evofosfamide],HCR (Hypoxia Cytotoxicity Ratio),H460; [12],251
same,IC50,H460; [8],17.2 ± 1 nM
same,IC50,H460; [9],4320 ± 1930 nM
same,HCR (Hypoxia Cytotoxicity Ratio),HCT116 [3]; [13],85
same,IC50,HCT116 [3]; [10],20.1 ± 3 nM
same,IC50,HCT116 [3]; [11],23.9 ± 7 nM
COC(=O)Nc1nc2ccc(C(=O)c3ccccc3)cc2[nH]1 [Mebendazole],logD,LogD determination,3.26 ± 0.01
Cc1nccn1CC1CCc2c(c3ccccc3n2C)C1=O (stereo not shown) [Ondansetron],solubility,[5],96 ± 3 µM
CS(=O)(=O)OCCN(CCBr)c1c(C(=O)NCCO)cc([N+](=O)[O-])cc1[N+](=O)[O-] [PR-104A],IC50,"H460; H460, hypoxia, read-out: IC50 (Hypoxia)",533 ± 47 nM
same,IC50,"H460; H460, normoxia, read-out: IC50 (Normoxia)",1340 ± 386 nM
same,HCR (Hypoxia Cytotoxicity Ratio),H460; [12],2.5
same,IC50,"HCT116 [3]; HCT116, hypoxia, read-out: IC50 (Hypoxia)",861 ± 122 nM
same,IC50,"HCT116 [3]; HCT116, normoxia, read-out: IC50 (Normoxia)",16500 nM
same,HCR (Hypoxia Cytotoxicity Ratio),HCT116 [3]; [13],10.5
CC(C)[N+](C)(CCOC(=O)C1c2ccccc2Oc2ccccc21)C(C)C [Propantheline],half-life at 1 μM,[6],< 3 h
same,half-life at 1 μM,[7],< 3 h
CNC(=C[N+](=O)[O-])NCCSCc1ccc(CN(C)C)o1 [Ranitidine],Permeability (Papp),[4],<−7 Log [10^−6 cm/s]
